Consider 19 compounds from patent publication US12527325B2, “Pesticidally active diazine-amide compounds” (SYNGENTA CROP PROTECTION AG, priority 2019, dated 2026).

Type in all cases: in vivo
For test [1], the system named is Plutella xylostella. The experiment in a line: Example B5: Plutella xylostella (Diamond Back Moth). Conditions: 192 h, application rate of 200 ppm, 24-well artificial diet, eggs, 8 days after infestation, read-out: control in at least one of the two categories (mortality or growth inhibition). Here is the method:
Example B5: Plutella xylostella (Diamond Back Moth)
24-well microtiter plates with artificial diet were treated with aqueous test solutions prepared from 10′000 ppm DMSO stock solutions by pipetting. After drying, Plutella eggs were pipetted through a plastic stencil onto a gel blotting paper and the plate was closed with it. The samples were assessed for mortality and growth inhibition in comparison to untreated samples 8 days after infestation.

In a further test the test system is Chilo suppressalis. The experiment in a line: Example B4: Chilo suppressalis (Striped Rice Stemborer). Conditions: 144 h, application rate of 200 ppm, artificial diet, L2 larvae, 6 days after infestation, read-out: control in at least one of the three categories (mortality, anti-feedant or growth inhibition). As for the experimental part: Example B4: Chilo suppressalis (Striped Rice Stemborer)
24-well microtiter plates with artificial diet were treated with aqueous test solutions prepared from 10′000 ppm DMSO stock solutions by pipetting. After drying, the plates were infested with L2 larvae (6-8 per well). The samples were assessed for mortality, anti-feeding effect, and growth inhibition in comparison to untreated samples 6 days after infestation. Control of Chilo suppressalis by a test sample is given when at least one of the categories mortality, anti-feedant effect, and growth inhibition is higher than the untreated sample.

Another test has as its system Diabrotica balteata. The experiment in a line: Example B1: Diabrotica balteata (Corn Root Worm). Conditions: 96 h, application rate of 200 ppm, sprayed maize sprouts, L2 larvae, 4 days after infestation, read-out: control in at least one of the two categories (mortality or growth inhibition). As for the experimental part: Example B1: Diabrotica balteata (Corn Root Worm)
Maize sprouts placed onto an agar layer in 24-well microtiter plates were treated with aqueous test solutions prepared from 10′000 ppm DMSO stock solutions by spraying. After drying, the plates were infested with L2 larvae (6 to 10 per well). The samples were assessed for mortality and growth inhibition in comparison to untreated samples 4 days after infestation.

In the next test the test system is Spodoptera littoralis. Nature of the test: Example B9: Spodoptera littoralis (Egyptian Cotton Leaf Worm), cotton leaf disc spray. Conditions: foliar, 72 h, application rate of 200 ppm, sprayed cotton leaf discs, L1 larvae, 3 days after infestation, read-out: control in at least one of the three categories (mortality, anti-feedant or growth inhibition).
Test [2] relates to Plutella xylostella. Nature of the test: Example B12: Plutella xylostella (Diamondback Moth), 96-well artificial diet. Conditions: 216 h, application rate of 500 ppm, eggs, 9 days after infestation. Here is the method:
Example B12: Plutella xylostella (Diamondback Moth)
96-well microtiter plates containing artificial diet were treated with aqueous test solutions, prepared from 10′000 ppm DMSO stock solutions, by a liquid handling robot. After drying, eggs (˜30 per well) were infested onto a netted lid which was suspended above the diet. The eggs hatch and L1 larvae move down to the diet. The samples were assessed for mortality 9 days after infestation.

Each structure is given as a SMILES string. Some results are limits rather than exact numbers.

Regarding `CC(NC(=O)c1cc(OCC2CC2)nc(C(F)(F)F)c1)c1nccnc1-c1ncccn1` (stereo not drawn) [P43, 2-(cyclopropylmethoxy)-N-[1-(3-pyrimidin-2-ylpyrazin-2-yl)ethyl]-6-(trifluoromethyl)pyridine-4-carboxamide], in the test with Plutella xylostella [1], the percent control (mortality or growth inhibition) at 200 ppm is no less than 80%. Moreover, the percent control (mortality, anti-feedant effect or growth inhibition) at 200 ppm in the test on Chilo suppressalis is no less than 80%.
As to `CC(NC(=O)c1cc(C(F)(F)F)cc(C(C)(C)C#N)c1)c1nccnc1-c1ncc(C2CC2)cn1` (stereo not drawn) [P6, 3-(1-cyano-1-methyl-ethyl)-N-[1-[3-(5-cyclopropylpyrimidin-2-yl)pyrazin-2-yl]ethyl]-5-(trifluoromethyl) benzamide], the percent control (mortality or growth inhibition) at 200 ppm in the test on Diabrotica balteata and in the test on Plutella xylostella [1] was no less than 80% in each case. Also, the percent control (mortality, anti-feedant effect or growth inhibition) at 200 ppm with Spodoptera littoralis and with Chilo suppressalis was no less than 80% each time.
As for `CC(NC(=O)c1cc(C(F)(F)F)cc(S(=O)(=O)C(F)(F)F)c1)c1nccnc1-c1ccc(Cl)cn1` (stereo not drawn) [P15, N-[1-[3-(5-chloro-2-pyridyl)pyrazin-2-yl]ethyl]-3-(trifluoromethyl)-5-(trifluoromethylsulfonyl) benzamide], the mortality at 500 ppm in the test on Plutella xylostella [2] was no less than 80%.
As for `CC(NC(=O)c1cc(C(F)(F)F)cc(C(C)(C)C#N)c1)c1nccnc1-c1ccccn1` (stereo not drawn) [P7, 3-(1-cyano-1-methyl-ethyl)-N-[1-[3-(2-pyridyl)pyrazin-2-yl]ethyl]-5-(trifluoromethyl) benzamide], the percent control (mortality or growth inhibition) at 200 ppm with Diabrotica balteata and with Plutella xylostella [1] was no less than 80% each time. For the same compound, the percent control (mortality, anti-feedant effect or growth inhibition) at 200 ppm in the test on Spodoptera littoralis and in the test with Chilo suppressalis was no less than 80% in each case.
Consider `CC(NC(=O)c1cc(C(F)(F)F)cc(C(C)(C)C#N)c1)c1nccnc1-c1ccc(Cl)cn1` (stereo not drawn) [P8, N-[1-[3-(5-chloro-2-pyridyl)pyrazin-2-yl]ethyl]-3-(1-cyano-1-methyl-ethyl)-5-(trifluoromethyl) benzamide], for which the percent control (mortality or growth inhibition) at 200 ppm in the test with Diabrotica balteata and in the test on Plutella xylostella [1] was no less than 80% in each case. Further, the percent control (mortality, anti-feedant effect or growth inhibition) at 200 ppm in the test with Spodoptera littoralis and in the test on Chilo suppressalis was no less than 80% each time.
The compound `CC(NC(=O)c1cc(C(F)(F)F)cc(S(=O)(=O)C(F)(F)F)c1)c1nccnc1-c1ccc(Br)cn1` (stereo not drawn) [P14, N-[1-[3-(5-bromo-2-pyridyl)pyrazin-2-yl]ethyl]-3-(trifluoromethyl)-5-(trifluoromethylsulfonyl) benzamide] showed a mortality at 500 ppm in the test on Plutella xylostella [2] of no less than 80%.
For the compound `CC(NC(=O)c1cc(C(F)(F)F)cc(C(F)(F)C2CC2)c1)c1nccnc1-c1ncc(Br)cn1` (stereo not drawn) [P53, N-[1-[3-(5-bromopyrimidin-2-yl)pyrazin-2-yl]ethyl]-3-[cyclopropyl(difluoro)methyl]-5-(trifluoromethyl)benzamide], the percent control (mortality or growth inhibition) at 200 ppm in the test with Diabrotica balteata and in the test on Plutella xylostella [1] was no less than 80% throughout. In addition, the percent control (mortality, anti-feedant effect or growth inhibition) at 200 ppm with Spodoptera littoralis and with Chilo suppressalis was no less than 80% each time.
As for `Cc1cnc(-c2nccnc2C(C)NC(=O)c2cc(C(F)(F)F)cc(C(F)(F)C3CC3)c2)nc1` (stereo not drawn) [P52, 3-[cyclopropyl (difluoro)methyl]-N-[1-[3-(5-methylpyrimidin-2-yl)pyrazin-2-yl]ethyl]-5-(trifluoromethyl)benzamide], the percent control (mortality, anti-feedant effect or growth inhibition) at 200 ppm in the test with Spodoptera littoralis was no less than 80%. Also, in the test on Plutella xylostella [1], the percent control (mortality or growth inhibition) at 200 ppm is no less than 80%.
As for `CC(NC(=O)c1cc(C(F)(F)F)cc(C(C)(C)C#N)c1)c1nccnc1-c1ncc(Br)cn1` (stereo not drawn) [P49, N-[1-[3-(5-bromopyrimidin-2-yl)pyrazin-2-yl]ethyl]-3-(1-cyano-1-methyl-ethyl)-5-(trifluoromethyl)benzamide], the percent control (mortality or growth inhibition) at 200 ppm in the test with Diabrotica balteata and with Plutella xylostella [1] was no less than 80% throughout. Besides, the percent control (mortality, anti-feedant effect or growth inhibition) at 200 ppm in the test on Spodoptera littoralis and in the test with Chilo suppressalis was no less than 80% each time.
For `CC(NC(=O)c1cc(C(F)(F)F)cc(C(F)(F)C2CC2)c1)c1nccnc1-c1ccc(F)cn1` (stereo not drawn) [P38, 3-[cyclopropyl (difluoro)methyl]-N-[1-[3-(5-fluoro-2-pyridyl)pyrazin-2-yl]ethyl]-5-(trifluoromethyl)benzamide], the percent control (mortality or growth inhibition) at 200 ppm in the test on Plutella xylostella [1] was no less than 80%. Moreover, the mortality at 500 ppm in the test on Plutella xylostella [2] is no less than 80%.
`CC(NC(=O)c1cc(C2CC2)cc(C(F)(F)F)c1)c1nccnc1-c1ncc(Br)cn1` (stereo not drawn) [P58, N-[1-[3-(5-bromopyrimidin-2-yl)pyrazin-2-yl]ethyl]-3-cyclopropyl-5-(trifluoromethyl) benzamide]: the percent control (mortality or growth inhibition) at 200 ppm in the test on Diabrotica balteata and with Plutella xylostella [1] was no less than 80% in each case. Moreover, the percent control (mortality, anti-feedant effect or growth inhibition) at 200 ppm in the test with Spodoptera littoralis and with Chilo suppressalis was no less than 80% each time.
Regarding `CC(NC(=O)c1cc(C(F)(F)F)cc(S(=O)(=O)C(F)(F)F)c1)c1nccnc1-c1ncc(Br)cn1` (stereo not drawn) [P57, N-[1-[3-(5-bromopyrimidin-2-yl)pyrazin-2-yl]ethyl]-3-(trifluoromethyl)-5-(trifluoromethylsulfonyl) benzamide], the percent control (mortality or growth inhibition) at 200 ppm in the test on Diabrotica balteata and in the test on Plutella xylostella [1] was no less than 80% throughout. Further, the percent control (mortality, anti-feedant effect or growth inhibition) at 200 ppm with Spodoptera littoralis and in the test on Chilo suppressalis was no less than 80% throughout.
As for `CC(NC(=O)c1cc(C(F)(F)F)cc(C(F)(F)C2CC2)c1)c1nccnc1-c1ccc(Cl)cn1` (stereo not drawn) [P4, N-[1-[3-(5-chloro-2-pyridyl)pyrazin-2-yl]ethyl]-3-[cyclopropyl(difluoro)methyl]-5-(trifluoromethyl) benzamide], the percent control (mortality, anti-feedant effect or growth inhibition) at 200 ppm in the test with Spodoptera littoralis and in the test on Chilo suppressalis was no less than 80% in each case. The percent control (mortality or growth inhibition) at 200 ppm in the test on Plutella xylostella [1] was no less than 80%.
Consider `CC(NC(=O)c1cc(C(F)(F)F)cc(C(C)(C)C#N)c1)c1nccnc1-c1ccc(Br)cn1` (stereo not drawn) [P9, N-[1-[3-(5-bromo-2-pyridyl)pyrazin-2-yl]ethyl]-3-(1-cyano-1-methyl-ethyl)-5-(trifluoromethyl) benzamide], for which the percent control (mortality or growth inhibition) at 200 ppm in the test on Diabrotica balteata and in the test with Plutella xylostella [1] was no less than 80% throughout. The percent control (mortality, anti-feedant effect or growth inhibition) at 200 ppm with Spodoptera littoralis and with Chilo suppressalis was no less than 80% in each case.
As for `COC1(c2cc(C(=O)NC(C)c3nccnc3-c3ncccn3)cc(C(F)(F)F)c2)CC1` (stereo not drawn) [P47, 3-(1-methoxycyclopropyl)-N-[1-(3-pyrimidin-2-ylpyrazin-2-yl)ethyl]-5-(trifluoromethyl)benzamide], the percent control (mortality or growth inhibition) at 200 ppm in the test on Plutella xylostella [1] was no less than 80%. In addition, the percent control (mortality, anti-feedant effect or growth inhibition) at 200 ppm with Chilo suppressalis is no less than 80%.
As for `Cc1cnc(-c2nccnc2C(C)NC(=O)c2cc(C(F)(F)F)cc(C3(C#N)CC3)c2)nc1` (stereo not drawn) [P54, 3-(1-cyanocyclopropyl)-N-[1-[3-(5-methylpyrimidin-2-yl)pyrazin-2-yl]ethyl]-5-(trifluoromethyl)benzamide], the percent control (mortality, anti-feedant effect or growth inhibition) at 200 ppm in the test on Spodoptera littoralis and in the test with Chilo suppressalis was no less than 80% each time. The percent control (mortality or growth inhibition) at 200 ppm in the test with Plutella xylostella [1] was no less than 80%.
`Cc1cnc(-c2nccnc2C(C)NC(=O)c2cc(C(F)(F)F)cc(S(=O)(=O)C(F)(F)F)c2)nc1` (stereo not drawn) [P56, N-[1-[3-(5-methylpyrimidin-2-yl)pyrazin-2-yl]ethyl]-3-(trifluoromethyl)-5-(trifluoromethylsulfonyl) benzamide]: the percent control (mortality, anti-feedant effect or growth inhibition) at 200 ppm with Spodoptera littoralis and with Chilo suppressalis was no less than 80% each time. Further, in the test with Plutella xylostella [1], the percent control (mortality or growth inhibition) at 200 ppm is no less than 80%.
With `Cc1cnc(-c2nccnc2C(C)NC(=O)c2cc(C3CC3)cc(C(F)(F)F)c2)nc1` (stereo not drawn) [P51, 3-cyclopropyl-N-[1-[3-(5-methylpyrimidin-2-yl)pyrazin-2-yl]ethyl]-5-(trifluoromethyl)benzamide], the percent control (mortality, anti-feedant effect or growth inhibition) at 200 ppm with Spodoptera littoralis is no less than 80%. Besides, the percent control (mortality or growth inhibition) at 200 ppm with Plutella xylostella [1] was no less than 80%.
Turning to `CC(NC(=O)c1cc(C(F)(F)F)cc(C(C)(C)C#N)c1)c1nccnc1-c1ccc(F)cn1` (stereo not drawn) [P5, 3-(1-cyano-1-methyl-ethyl)-N-[1-[3-(5-fluoro-2-pyridyl)pyrazin-2-yl]ethyl]-5-(trifluoromethyl) benzamide], the percent control (mortality or growth inhibition) at 200 ppm with Plutella xylostella [1] is no less than 80%.
